Where two headings read alike, the source gives them in different places.
Tests used:
[1] = Phase I dose escalation trial: pharmacokinetic profile; format: in vivo, human; conditions: for Tmax / AUC(0-t) / concentration at 24 h / half-life / Cmax / AUC: human, plasma, oral, patient plasma; for AUC(0-t): read-out: AUC0-24; for concentration at 24 h: read-out: C24h; for half-life: read-out: T1/2,t (converted)
Experimental: Pharmacokinetics profile with oral bid dosing was also studied. The plasma concentration of the drug reached several folds over the efficacious concentration (in vitro IC50) as illustrated in Table 8.
To maintain drug plasma concentration at or above the efficacious level for a desirable duration and to further increase peak plasma concentration, we studied the pharmacokinetics of a 500 mg BID regimen (at 4 hour interval between two doses on the same day or “q4h”), and compared it to that of a 500 mg QD regimen (FIG. 1). […] In another suitable dosing regimen, 500 mg of Compound 1 were administered three times a day (TID) to human subjects.

[2] = Phase 1 extension study of higher strength capsule (DP2A): pharmacokinetics; format: in vivo; conditions: human, plasma, oral, 500 mg; for AUC(0-t): read-out: AUC0-24
Excerpt: However, with the higher strength capsules, we observed worsening gastrointestinal adverse effects including nausea, vomiting, and diarrhea in patients.
Additional studies were run using an oral formulation of the Compound of the Invention, specifically a higher strength capsule formulation (DP2A). As described herein, the Compound of the Invention blocks cancer stem cell (CSC) self-renewal and induces cell death in CSC as well as non-stem cancer cells by inhibiting Stat3, β-catenin, and Nanog pathways, and has shown potent anti-tumor and anti-metastatic activities pre-clinically. […] The studies described herein were designed as a phase 1 extension study to evaluate a formulation designed for pivotal trials to determine pharmacokinetics (PK) in patients with advanced cancer.
On Day 1, patients received a single 500 mg dose of an oral administration formulation of the Compound of the Invention (DP1). On Day 4 and Day 8, a higher strength capsule designed for pivotal trials (DP2A) was given with fasting then fed conditions. DP2A was then administered daily until disease progression or unacceptable toxicity. Endpoints were safety, PK and preliminary anticancer activity.

cancer cells = assay: Antitumor activity of the compound in patient urine; format: cell-based; conditions: compound in patient urine tested against cancer cells
[3] = test system: phosphorylated STAT3 (p-STAT3); assay: Immunohistochemistry of CRC patient tumor tissue for p-STAT3; format: in vivo, human; conditions: 100 mg/kg QD (single daily dosage), FIG. 3A
Experimental: CRC patient's archival tumor tissue samples were analyzed through immunohistochemistry (IHC) using labeled antibodies against phosphorylated STAT3 (p-STAT3). […] For instance, 40% of the patients with high p-STAT3 levels before treatment survived longer than 100 weeks whereas only 10% of those with low or no p-STAT3 levels before treatment survived beyond 100 weeks. This further confirms that the Compound of the Invention downregulates that STAT3 pathway, and that the STAT3 pathway is implicated in colorectal cancers.

[4] = Phase I dose escalation trial: pharmacokinetic profile; format: in vivo, human
CD44^high cells (FaDu) = assay: CD44high sphere growth; format: cell-based; conditions: FACS-isolated from FaDu, sphere culture, five days of treatment, FIG. 5
Experimental: CD44^high cells were isolated by FACS (FaDu) and were cultured in the absence of attachment and serum for 5 days to form primary spheres. Primary spheres were then dissociated in Accumax (eBioscience, San Diego, Calif.) to single cells, and were cultured as above for 72 hours before the addition of the indicated concentrations of therapeutic agents. After five days of treatment, representative sphere images were captured.
CD44^high cells were isolated by FACS (FaDu) and their growth was blocked by a Compound of the Invention (FIG. 5).

[5] = 20 mg, Total Daily Dose 20 (mg), qd
[6] = 40 mg, Total Daily Dose 40 (mg), qd
[7] = 80 mg, Total Daily Dose 80 (mg), bid q4h
[8] = 80 mg, Total Daily Dose 80 (mg), qd
[9] = 160 mg, Total Daily Dose 160 (mg), bid q4h
[10] = 320 mg, Total Daily Dose 320 (mg), bid q4h
[11] = 400 mg, Total Daily Dose 400 (mg), bid q4h
[12] = 600 mg, Total Daily Dose 600 (mg), bid q4h
[13] = 800 mg, Total Daily Dose 800 (mg), bid q4h
[14] = 1000 mg, Total Daily Dose 1000 (mg), bid q4h
[15] = 1000 mg, Total Daily Dose 1000 (mg), bid q6h
[16] = 1400 mg, Total Daily Dose 1400 (mg), bid q4h
[17] = 1500 mg, Total Daily Dose 1500 (mg), tid q4h
[18] = 2000 mg, Total Daily Dose 2000 (mg), bid q4h
[19] = Patient 0053, single 500 mg dose - fed
[20] = Patient 0054, single 500 mg dose - fed
[21] = Patient 0061, single 500 mg dose - fed
[22] = Patient 0070, single 500 mg dose - fed
[23] = human, plasma, oral, 20 mg, Total Daily Dose 20 (mg), qd, patient plasma

## CC(=O)c1cc2c(o1)C(=O)c1ccccc1C2=O [Compound 1, 2-acetylnaphtho[2,3-b]furan-4,9-dione]
[1]; human subjects
  patient exposure, 500 mg three times a day (TID) versus twice daily: not significantly improved
[1]; [5]
  Tmax: 3 h
  AUC(0-t): 2.01 µM·h
  concentration at 24 h: 30 nM
  half-life: 1110 min
[1]; [6]
  Cmax: 500 nM
  Tmax: 0.5 h
  AUC(0-t): 3.44 µM·h
  concentration at 24 h: 30 nM
  half-life: 270 min
[1]; [7]
  AUC: 8.13 µM·h
  Cmax: 900 nM
  Tmax: 8.1 h
  AUC(0-t): 7.95 µM·h
  concentration at 24 h: 30 nM
  half-life: 216 min
[1]; [8]
  Cmax: 2240 nM
  Tmax: 1.5 h
  AUC(0-t): 12.8 µM·h
  concentration at 24 h: 70 nM
  half-life: 312 min
[1]; [9]
  Cmax: 1330 nM
  Tmax: 3.9 h
[1]; [10]
  AUC: 38.3 µM·h
  Cmax: 2920 nM
  Tmax: 3.8 h
  AUC(0-t): 33.1 µM·h
  concentration at 24 h: 240 nM
  half-life: 342 min
[1]; [11]
  AUC: 48.2 µM·h
  Cmax: 3750 nM
  Tmax: 7.9 h
  AUC(0-t): 40.2 µM·h
  concentration at 24 h: 620 nM
  half-life: 414 min
[1]; [12]
  AUC: 37.1 µM·h
  Cmax: 2670 nM
  Tmax: 3.2 h
  AUC(0-t): 27.8 µM·h
  concentration at 24 h: 420 nM
  half-life: 540 min
[1]; [13]
  AUC: 27 µM·h
  Cmax: 3040 nM
  Tmax: 4.3 h
  AUC(0-t): 26.1 µM·h
  concentration at 24 h: 160 nM
  half-life: 240 min
[1]; [14]
  AUC: 50.7 µM·h
  Cmax: 4970 nM
  Tmax: 6.6 h
  AUC(0-t): 45.1 µM·h
  concentration at 24 h: 290 nM
  half-life: 396 min
[1]; [15]
  AUC: 22.9 µM·h
  Cmax: 1360 nM
  Tmax: 5.7 h
  AUC(0-t): 15.8 µM·h
  concentration at 24 h: 330 nM
  half-life: 762 min
[1]; [16]
  AUC: 45 µM·h
  Cmax: 2050 nM
  Tmax: 2.9 h
  AUC(0-t): 28.2 µM·h
  concentration at 24 h: 650 nM
  half-life: 816 min
[1]; [17]
  AUC: 59.9 µM·h
  Cmax: 3750 nM
  Tmax: 7.3 h
  AUC(0-t): 46.4 µM·h
  concentration at 24 h: 940 nM
  half-life: 492 min
[1]; [18]
  AUC: 45.8 µM·h
  Cmax: 1690 nM
  Tmax: 6.3 h
  AUC(0-t): 25.9 µM·h
  concentration at 24 h: 800 nM
  half-life: 1030 min
[1]; patients, FIG. 1
  pharmacokinetics, 500 mg BID (q4h) versus 500 mg QD: no significant difference
[2]; [19]
  Cmax: 6.61 µM
  AUC(0-t): 79.6 µM·h
[2]; [20]
  Cmax: 6.25 µM
  AUC(0-t): 49.8 µM·h
[2]; [21]
  Cmax: 1.54 µM
  AUC(0-t): 10.6 µM·h
[2]; [22]
  Cmax: 2.25 µM
  AUC(0-t): 20.1 µM·h
Cancer cells
  antitumor activity in patient urine: remained potent against cancer cells
[3]
  p-STAT3 in the patient tissue after treatment (IHC): almost no longer any detectable p-STAT3
[4]; 20 mg QD, humans
  clearance from the blood: rapidly cleared from the blood
[4]; 20 mg daily administration
  concentration of the compound in urine of the patient: surprisingly high concentration
[4]; [23]
  AUC: 2.7 µM·h
  Cmax: 490 nM
[4]; human, plasma, oral, 40 mg, Total Daily Dose 40 (mg), qd, patient plasma
  AUC: 3.62 µM·h
[4]; human, plasma, oral, 80 mg, Total Daily Dose 80 (mg), qd, patient plasma
  AUC: 13.3 µM·h
CD44^high cells (FaDu)
  CD44^high cells growth: blocked

Source: patent publication US10543189B2, “2-acetylnaphtho[2,3-b]furan -4,9-dione for use on treating cancer” (Boston Biomedical, Inc., priority 2013, dated 2020)
